# According to patent US7652020B2, “Compounds for the treatment of inflammatory disorders” (Schering Corporation, priority 2004, dated 2010):
# pKi: −log10 of the molar value.
# Molecular target: T1, purified catalytic domain of recombinant human TACE (rhTACEc) (Homo sapiens, UniProt P78536, N452Q/S266A)
# T1 construct: Residue 215 to 477 with two mutation (S266A and N452Q) and a 6×His tail; 6xHis (C); made in house; host or cells: baculovirus/Hi5 insect cells
# Test: TACE kinetic assay: cleavage of internally quenched peptide substrate SPDL-3, fluorescence
# Type: biochemical
# Settings: TACE inhibitory activity, class symbols; read-out: Ki
# Protocol: TACE activity is determined by a kinetic assay measuring the rate of increase in fluorescent intensity generated by TACE catalyzed cleavage of an internally quenched peptide substrate (SPDL-3). […] It is purified from the baculovirus/Hi5 cells expression system using affinity chromatography. […] MCA is (7-Methoxycoumarin-4-yl)acetyl. Dpa is N-3-(2,4-Dinitrophenyl)-L-2,3-diaminopropionyl.
# A 50 μl assay mixture contains 20 mM HEPES, pH 7.3, 5 mM CaCl2, 100 μM ZnCl2, 2% DMSO, 0.04% Methylcellulose, 30 μM SPDL-3, 70 pM rhTACEc and a test compound. RhTACEc is pre-incubated with the testing compound for 90 min. at 25° C. Reaction is started by addition of the substrate. […] Rate of enzymatic reaction is shown as Units per second. Effect of a test compound is shown as % of TACE activity in the absence of the compound.
# T1 sequence (P78536 215-477 S266A/N452Q): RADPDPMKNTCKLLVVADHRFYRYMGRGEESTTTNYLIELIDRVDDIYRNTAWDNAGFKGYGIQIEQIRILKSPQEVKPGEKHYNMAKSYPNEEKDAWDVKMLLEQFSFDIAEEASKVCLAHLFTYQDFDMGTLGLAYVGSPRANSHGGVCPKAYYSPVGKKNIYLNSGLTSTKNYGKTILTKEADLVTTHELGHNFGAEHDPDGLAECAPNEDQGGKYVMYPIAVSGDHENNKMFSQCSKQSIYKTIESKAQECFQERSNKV
row,SMILES,pKi
1,C[C@@H](NC(=O)[C@H](O)[C@@H](O)C(=O)N1CCN2CCC[C@H]2C1)c1ccc(-n2cccn2)cc1 [Compound 2420],6.00 to 7.00
2,O=C(NCC1CCN(c2ccccc2OC(F)(F)F)CC1)[C@H](O)[C@@H](O)C(=O)N1Cc2ccncc2C1 [Compound 2040],> 7.70
3,C[C@@H](NC(=O)[C@H](O)[C@@H](O)C(=O)N1CCC[C@@H]1c1csc(N(C)C)n1)c1ccc(-n2cccn2)cc1 [Compound 2260],7.00 to 7.70
4,COc1cccc([C@@H](C)NC(=O)[C@H](O)[C@@H](O)C(=O)N2Cc3cccnc3C2)c1 [Compound 2306],< 6.00
5,C[C@@H](NC(=O)[C@H](O)[C@@H](O)C(=O)N1Cc2cncnc2C1(C)C)c1ccc(-n2cccn2)cc1 [Compound 2046],6.00 to 7.00
6,C[C@](O)(C(=O)NCC1CCN(c2ccc(F)cc2C#N)CC1)[C@@H](O)C(=O)N1Cc2cccnc2C1 [Compound 2034],7.00 to 7.70
7,CC1c2cnc(N)nc2CN1C(=O)[C@H](O)[C@@H](O)C(=O)N[C@H](C)c1ccc(-n2cccn2)cc1 (some centres unmarked) [Compound 2051],7.00 to 7.70
8,CCOc1c(F)cccc1N1CCC(CNC(=O)[C@H](O)[C@@H](O)C(=O)N2CCCC2)CC1 [Compound 2141],< 6.00
9,CNc1nccc([C@H]2CCCN2C(=O)[C@H](O)[C@@H](O)C(=O)N[C@H](C)c2ccc(-n3cccn3)cc2)n1 [Compound 2249],> 7.70
10,CNc1nc([C@H]2c3ccccc3CCN2C(=O)[C@H](O)[C@@H](O)C(=O)N[C@H](C)c2ccc(-n3cccn3)cc2)cs1 [Compound 2586],> 7.70
11,CC1c2ncncc2CN1C(=O)[C@H](O)[C@@H](O)C(=O)N[C@H](C)c1ccc(-n2cccn2)cc1 (some centres unmarked) [Compound 2049],7.00 to 7.70
12,C[C@@H](NC(=O)[C@H](O)[C@@H](O)C(=O)N1CCc2cccnc2C1)c1ccc(-n2cccn2)cc1 [Compound 2083],7.00 to 7.70
13,O=C(NCc1ccc(-c2ccccc2OC(F)(F)F)cn1)[C@H](O)[C@@H](O)C(=O)N1CCCC1 [Compound 2350],> 7.70
14,C[C@@H](NC(=O)[C@H](O)[C@@H](O)C(=O)N1CCc2ccc(F)cc2C1)c1ccc(-n2cccn2)cc1 [Compound 2439],> 7.70
15,C[C@@H](NC(=O)[C@H](O)[C@@H](O)C(=O)N1Cc2cccnc2C1)c1ccc(-n2cccn2)cc1 [Compound 2032],> 7.70
16,C[C@@H](NC(=O)[C@H](O)[C@@H](O)C(=O)N1C[C@H](O)[C@H](O)[C@H]1c1cccc(Cl)c1)c1ccc(-n2cccn2)cc1 [Compound 2267],6.00 to 7.00
17,O=C(NCc1ccc(-c2ccc(F)cc2OCC(F)(F)F)cc1)[C@H](O)[C@@H](O)C(=O)N1CCCC1 [Compound 2337],7.00 to 7.70
18,CC(C)CN(C(=O)[C@H](O)[C@@H](O)C(=O)N[C@H](C)c1ccc(-n2cccn2)cc1)C(C)c1cccc(Cl)c1 (some centres unmarked) [Compound 2482],< 6.00
19,C[C@@H](NC(=O)[C@H](O)[C@@H](O)C(=O)N1CCCc2ccccc21)c1ccc(-n2cccn2)cc1 [Compound 2421],6.00 to 7.00
20,C[C@@H](NC(=O)[C@H](O)[C@@H](O)C(=O)N1CCc2ncncc2C1)c1ccc(-n2cccn2)cc1 [Compound 2079],6.00 to 7.00
21,CCN(C(=O)[C@H](O)[C@@H](O)C(=O)N[C@H](C)c1ccc(-n2cccn2)cc1)C(C)c1cccc(Cl)c1 (some centres unmarked) [Compound 2481],6.00 to 7.00
22,C[C@@H](NC(=O)[C@H](O)[C@@H](O)C(=O)N1CCc2nc(N)sc2C1)c1ccc(-n2cccn2)cc1 [Compound 2081],> 7.70
23,CNc1ncc2c(n1)CN(C(=O)[C@H](O)[C@@H](O)C(=O)N[C@H](C)c1ccc(-n3cccn3)cc1)C2C (some centres unmarked) [Compound 2054],> 7.70
24,O=C([C@H](O)[C@@H](O)c1cncc(-c2ccccc2)n1)N1Cc2ccccc2C1 [Compound 2391],< 6.00
25,C[C@@H](NC(=O)[C@H](O)[C@@H](O)C(=O)N1CCCCC1)c1ccc(-n2cccn2)cc1 [Compound 2408],7.00 to 7.70

row,SMILES,pKi
1,N#Cc1ccccc1N1CCC2(CC1)CC2NC(=O)[C@H](O)[C@@H](O)C(=O)N1CCC[C@@H]1c1ccccc1 (some centres unmarked) [Compound 2153],< 6.00
2,CNc1nc([C@H]2C[C@H]3C[C@H]3N2C(=O)[C@H](O)[C@@H](O)C(=O)N[C@H](C)c2ccc(-n3cccn3)cc2)cs1 [Compound 2245],> 7.70
3,C[C@@H](NC(=O)[C@H](O)[C@@H](O)C(=O)N1CCCCC1c1nccs1)c1ccc(-n2cccn2)cc1 (some centres unmarked) [Compound 2416],7.00 to 7.70
4,O=C(NCC1CCN(c2ccccc2OC(F)(F)F)CC1)[C@H](O)[C@@H](O)C(=O)N1Cc2cccnc2C1 [Compound 2035],> 7.70
5,N#Cc1cc(F)ccc1N1CCC(CNC(=O)[C@H](O)[C@@H](O)C(=O)N2Cc3cccnc3C2)CC1 [Compound 2003],7.00 to 7.70
6,C[C@@H](NC(=O)[C@H](O)[C@@H](O)C(=O)N1CC(C)(C)C[C@]1(C)c1cccc(Cl)c1)c1ccc(-n2cccn2)cc1 [Compound 2240],7.00 to 7.70
7,CC(C)Nc1nc([C@@H]2c3ccccc3CN2C(=O)[C@H](O)[C@@H](O)C(=O)N[C@H](C)c2ccc(-n3cccn3)cc2)cs1 [Compound 2593],> 7.70
8,C[C@@H](NC(=O)[C@H](O)[C@@H](O)C(=O)N1CCC[C@@H]1c1ccn(-c2cccc(F)c2)n1)c1ccc(-n2cccn2)cc1 [Compound 2598],> 7.70
9,Cn1c([C@H](O)[C@@H](O)C(=O)NCC2CCN(c3ccc(F)cc3C#N)CC2)nc2ccccc21 [Compound 2394],< 6.00
10,C[C@@H]1CN(c2ccc(F)cc2C#N)CCC1CNC(=O)[C@H](O)[C@@H](O)C(=O)N1CCCC1 (some centres unmarked) [Compound 2150],7.00 to 7.70
11,O=C(NCC1CCN(c2ccc(F)cc2OCC(F)(F)F)CC1)[C@H](O)[C@@H](O)C(=O)N1CCCC1 [Compound 2142],7.00 to 7.70
12,C[C@@H](NC(=O)[C@H](O)[C@@H](O)C(=O)N1CCC[C@@H]1c1csc(Nc2cccnc2)n1)c1ccc(-n2cccn2)cc1 [Compound 2259],> 7.70
13,C[C@@H](NC(=O)[C@H](O)[C@@H](O)C(=O)N1C[C@H](O)C[C@H]1c1cccc(Cl)c1)c1ccc(-n2cccn2)cc1 [Compound 2265],> 7.70
14,CNc1nc([C@H]2CCCN2C(=O)[C@H](O)[C@@H](O)C(=O)NCC2CCN(c3ccc(F)cc3C#N)CC2)cs1 [Compound 2253],> 7.70
15,Cc1ncc2c(n1)CN(C(=O)[C@H](O)[C@@H](O)C(=O)N[C@H](C)c1ccc(-n3cccn3)cc1)C2 [Compound 2045],6.00 to 7.00
16,C[C@@H](NC(=O)[C@H](O)[C@@H](O)C(=O)N1CCCCC1c1ccc(Cl)cc1)c1ccc(-n2cccn2)cc1 (some centres unmarked) [Compound 2418],7.00 to 7.70
17,C[C@@H](NC(=O)[C@H](O)[C@@H](O)C(=O)N1CCC[C@@H]1c1ccn(-c2ccc(F)cc2)n1)c1ccc(-n2cccn2)cc1 [Compound 2599],> 7.70
18,C[C@@H](NC(=O)[C@H](O)[C@@H](O)C(=O)N1CCC[C@@H]1c1csc(N(C)S(C)(=O)=O)n1)c1ccc(-n2cccn2)cc1 [Compound 2582],> 7.70
19,C[C@@H](NC(=O)[C@H](O)[C@@H](O)C(=O)N(C)C1Cc2ccccc2C1)c1ccc(-n2cccn2)cc1 [Compound 2489],7.00 to 7.70
20,CNc1ncc2c(n1)C(C)N(C(=O)[C@H](O)[C@@H](O)C(=O)N[C@H](C)c1ccc(-n3cccn3)cc1)C2 (some centres unmarked) [Compound 2053],7.00 to 7.70
21,C[C@@H](NC(=O)[C@H](O)[C@@H](O)C(=O)N1CCc2c(cnn2C)C1)c1ccc(-n2cccn2)cc1 [Compound 2074],7.00 to 7.70
22,C[C@@H](NC(=O)[C@H](O)[C@@H](O)C(=O)N1C[C@H]2CNC[C@H]2C1)c1ccc(-n2cccn2)cc1 [Compound 2424],6.00 to 7.00
23,CO[C@@H](C(=O)NCc1ccc(-c2ccc(F)cc2OCCC(C)(C)C)cc1)[C@@H](O)C(=O)N1Cc2cccnc2C1 [Compound 2475],7.00 to 7.70
24,C[C@@H](NC(=O)[C@](C)(O)[C@@H](O)C(=O)N1CCCC1(C)c1cccc(Cl)c1)c1ccc(-n2cccn2)cc1 (some centres unmarked) [Compound 2236],< 6.00
25,CCOc1cc(F)ccc1-c1ccc(CNC(=O)[C@H](O)[C@@H](O)C(=O)N2Cc3cccnc3C2)cc1 [Compound 2036],> 7.70

# Same assay, conditions: TACE, representative compounds, numeric values; read-out: Ki
row,SMILES,pKi
1,C[C@@H](NC(=O)[C@H](O)[C@@H](O)C(=O)N1Cc2ccccc2C1)c1ccc(-c2ccsc2)cc1,8.42
2,C[C@@H](NC(=O)[C@H](O)[C@@H](O)C(=O)N1CCc2ccccc2[C@@H]1c1csc(N)n1)c1ccc(-n2cccn2)cc1 [drawing 1309],8.96
3,C[C@@H](NC(=O)[C@H](O)[C@@H](O)C(=O)N1CCc2ccc(F)cc2C1)c1ccc(-n2cccn2)cc1 [drawing 1323],8.52
4,CC(C)Nc1nc([C@@H]2c3ccc(Cl)cc3CCN2C(=O)[C@H](O)[C@@H](O)C(=O)N[C@H](C)c2ccc(-n3cccn3)cc2)cs1 [drawing 1324],8.48
5,C[C@@H](NC(=O)[C@H](O)[C@@H](O)C(=O)N1CC=CC1c1cccc(Cl)c1)c1ccc(-n2cccn2)cc1 (some centres unmarked),9.22
6,CCNc1nc([C@@H]2c3ccccc3CN2C(=O)[C@H](O)[C@@H](O)C(=O)N[C@H](C)c2ccc(-n3cccn3)cc2)cs1 [drawing 1307],9.05
7,CNc1nc([C@H]2C=CCN2C(=O)[C@H](O)[C@@H](O)C(=O)N[C@H](C)c2ccc(-n3cccn3)cc2)cs1 [drawing 1300],9.24
8,CNc1nc([C@H]2CC(F)(F)CN2C(=O)[C@H](O)[C@@H](O)C(=O)N[C@H](C)c2ccc(-n3cccn3)cc2)cs1 [drawing 1327],8.41
9,C[C@@H](NC(=O)[C@H](O)[C@@H](O)C(=O)N1CCC[C@@H]1c1ccn(-c2ccc(F)cc2)n1)c1ccc(-n2cccn2)cc1 [drawing 1320],8.57
